The term mass density denotes the mass of a sample divided by its volume. By viscosity is commonly meant the resistance of a fluid to flow.

The source of these data is the NIST ThermoML archive (doi:10.1016/j.fluid.2015.03.003).

Numbers after ± are expanded uncertainties.

The conditions of this data set: 298.15 K, 101.33 kPa, Liquid; for electrical conductivity: Alternating current cell with electrodes; for mass density: Pycnometric method; for viscosity: Vibrating wire viscometry.

Consider `CCCCn1cc[n+](CCCC)c1.[Br-]` [1,3-dibutylimidazolium bromide], for which the electrical conductivity is 0.918 ± 0.006 S/m, the mass density turned out to be 1200 ± 560 kg/m3 and the viscosity was found to be 11.1 ± 1.8 mPa·s.
Taken in the same sequence, the figures for `CCCCn1cc[n+](C)c1.[Br-]` [1-butyl-3-methylimidazolium bromide] were 0.08 ± 0.01 S/m, 1230 ± 330 kg/m3 and 363 ± 110 mPa·s.
The like results for `CC(C)Cn1cc[n+](C)c1.[Br-]` [1-isobutyl-3-methylimidazolium bromide] were, in that order, 0.2 ± 0.004 S/m, 1260 ± 340 kg/m3 and 134 ± 28 mPa·s.
Taken in the same sequence, the figures for `CC(C)Cn1cc[n+](CC(C)C)c1.[Br-]` [1,3-diisobutylimidazolium bromide] were 0.403 ± 0.006 S/m, 1250 ± 610 kg/m3 and 67.6 ± 13 mPa·s.
